Several values for one entry are separate records, joined by “and”; a condition that tells them apart may be missing. Identical values can stand only once. *1 amine or outer side, *2 acyl side, *3 side chain or, on linkers, in order; H or OH if unused. Where a SMILES comes first, the peptide text is derived from it. Bridges are numbered along the chain shown (N, C = ends). [ ]: non-standard residue; d: D form. The star is where a group is joined. Orn(4R-OH,5R-OH) = O=C([C@H](C[C@@H](O)[C@@H](O)N[*:3])N[*:1])[*:2]; Tetradecanoyl(10R,12S-Me2) = CC[C@H](C)C[C@H](C)CCCCCCCCC(=O)*; hTyr(3S-OH,4S-OH) = N[C@H](C(=O)O)[C@H](O)[C@@H](O)c1ccc(O)cc1; Gln(3R-OH) = NC(=O)C[C@@H](O)[C@H](N)C(=O)O; Pro(3S-OH) = O=C(O)[C@H]1NCC[C@@H]1O; Hyp = O=C(O)[C@@H]1C[C@@H](O)CN1
Test system: C. elegans
Conditions: Table S2, C. elegans SS assay, 110 μM, averages of 4 data points

| Structure (SMILES) | Percentage of motility inhibition 0 h [%] | Percentage of motility inhibition 24 h |
| --- | --- | --- |
| COC(=O)[C@@]1(C)CC[C@]2(C(=O)O)CC[C@]3(C)C(=CC[C@@H]4[C@@]5(C)C[C@H](O)[C@H](O)[C@@](C)(CO)[C@@H]5CC[C@]43C)[C@@H]2C1 [Phytolaccagenin] | 5 | 15% |
| CC(C)C1=CC(=O)[C@@](C)([C@H]2[C@H](O)C[C@@]3(C)[C@@H]4CC=C5[C@@H](CC[C@@H](O[C@@H]6OC[C@@H](O)[C@H](O)[C@H]6O[C@@H]6O[C@@H](C)[C@H](O)[C@@H](O)[C@H]6O)C5(C)C)[C@]4(C)C(=O)C[C@]23C)O1 [Picfeltarraenin IA] | 5 | 2% |
| CC(C)C1=CC(=O)C(C)(C2C(O)CC3(C)C4CC=C5C(CCC(OC6OC(CO)C(O)C(O)C6OC6OC(C)C(O)C(O)C6O)C5(C)C)C4(C)C(=O)CC23C)O1 (centres unmarked) [Picfeltarraenin IB] | 0 | 34% |
| O=C1C[C@@H](c2ccccc2)Oc2cc(O[C@@H]3O[C@H](CO)[C@@H](O)[C@H](O)[C@H]3O)cc(O)c21 [Pinocembrin‐7‐O‐β‐D‐glucopyranoside] | 0 | 17% |
| CCN1CCN(C(=O)N[C@@H](C(=O)N[C@@H]2C(=O)N3[C@@H]2SC(C)(C)[C@@H]3C(=O)[O-])c2ccccc2)C(=O)C1=O.[Na+] [Piperacillin (sodium)] | 31 | 2% |
| C1CNCCN1.O.O.O.O.O.O [Piperazine (hexahydrate)] | 58 | 12% |
| C1CNCCN1.O=C(O)CC(O)C(=O)O (centres unmarked) [Piperazine (malate)] | 26 | 14% |
| C1CNCCN1.O=C(O)CCCCC(=O)O [Piperazine adipate] | 10 | 13% |
| COc1cc(/C=C/C(=O)N2CCC=CC2=O)cc(OC)c1OC [Piperlongumine] | 0 | 0% |
| Cc1cc(CC(C)CC(C)(C)C)n(O)c(=O)c1.NCCO (centres unmarked) [Piroctone olamine] | 5 | 7% |
| CC(C)(C)C(=O)OCOC(=O)[C@@H]1N2C(=O)[C@@H](N=CN3CCCCCC3)[C@H]2SC1(C)C.Cl [Pivmecillinam (hydrochloride)] | 12 | 0% |
| CC1(C)CC[C@]2(C(=O)O)[C@H](O)C[C@]3(C)C(=CC[C@@H]4[C@@]5(C)C[C@H](O)[C@H](O)C(CO)(CO)[C@@H]5CC[C@]43C)[C@@H]2C1 [Platicodigenin] | 0 | 0% |
| C[C@@H]1O[C@@H](O[C@H]2[C@H](OC(=O)[C@]34CCC(C)(C)C[C@H]3C3=CC[C@@H]5[C@@]6(C)C[C@H](O)[C@H](O[C@@H]7O[C@H](CO)[C@@H](O)[C@H](O)[C@H]7O)[C@](CO)(C(=O)O)[C@@H]6CC[C@@]5(C)[C@]3(C)C[C@H]4O)OC[C@H](O)[C@@H]2O)[C@H](O)[C@H](O)[C@H]1O[C@@H]1OC[C@@H](O)[C@H](O[C@@H]2OC[C@](O)(CO)[C@H]2O)[C@H]1O [Platyconic acid A] | 0 | 5% |
| CC[C@H](C)C[C@H](C)CCCCCCCCC(=O)N[C@H]1C[C@@H](O)[C@@H](O)NC(=O)[C@@H]2[C@@H](O)CCN2C(=O)[C@H]([C@H](O)CC(N)=O)NC(=O)[C@H]([C@H](O)[C@@H](O)c2ccc(O)cc2)NC(=O)[C@@H]2C[C@@H](O)CN2C(=O)[C@H]([C@@H](C)O)NC1=O [Pneumocandin B0] ({Tetradecanoyl(10R,12S-Me2)}-[Orn(4R-OH,5R-OH)]T[Hyp][hTyr(3S-OH,4S-OH)][Gln(3R-OH)][Pro(3S-OH)]; lactam 1-C) | 0 | 0% |
| COc1ccc(OCc2ccc(COc3c(Cl)cccc3Cl)cc2)c(Cl)c1 [Pocapavir] | 29 | 18% |
| CC1(C)CCC2(C(=O)O)C(O)CC3(C)C(=CCC4C5(C)CC(O)C(O)C(C)(CO)C5CCC43C)C2C1 (centres unmarked) [Polygalacic acid] | 3 | 0% |
| C[C@@H]1O[C@@H](O[C@H]2[C@H](OC(=O)[C@]34CCC(C)(C)C[C@H]3C3=CC[C@@H]5[C@@]6(C)C[C@H](O)[C@H](O[C@@H]7O[C@H](CO)[C@@H](O)[C@H](O)[C@H]7O)[C@@](C)(CO)[C@@H]6CC[C@@]5(C)[C@]3(C)CC4)O[C@H](CO)[C@@H](O)[C@@H]2O)[C@H](O)[C@H](O)[C@H]1O[C@@H]1OC[C@@H](O)[C@H](O)[C@H]1O [Polygalasaponin F] | 5 | 0% |
| CC1(C)CC[C@]2(C(=O)O)CCC3=C(CC[C@@H]4[C@@]5(C)C[C@H](O)[C@H](O)[C@@](C)(C(=O)O)[C@@H]5CC[C@@]34C)[C@@H]2C1 [Polygalic acid] | 0 | 1% |

| Structure (SMILES) | Percentage of motility inhibition 0 h [%] | Percentage of motility inhibition 24 h |
| --- | --- | --- |
| C=C(CC[C@@H](C(=O)O)[C@H]1[C@H](O)C[C@@]2(C)C3=CC[C@H]4C(C)(C)C(=O)CC[C@]4(C)C3=CC[C@]12C)C(C)C [Polyporenic acid C] | 30 | 12% |
| CC(=O)[C@H]1CC[C@H]2[C@@H]3CC=C4C[C@@H](OS(=O)(=O)[O-])CC[C@]4(C)[C@H]3CC[C@]12C.[Na+] [Pregnenolone monosulfate (sodium)] | 0 | 0% |
| CC(=O)C1CCC2C3CC=C4CC(OS(=O)(=O)O)CCC4(C)C3CCC12C (centres unmarked) [Pregnenolone monosulfate] | 0 | 4% |
| CC(=O)[C@H]1CC[C@H]2[C@@H]3CC=C4C[C@@H](O)CC[C@]4(C)[C@H]3CC[C@]12C [Pregnenolone] | 11 | 4% |
| COc1cc(NC(C)CCCN)c2ncccc2c1.O=P(O)(O)O.O=P(O)(O)O (centres unmarked) [Primaquine (Diphosphate)] | 37 | 0% |
| Oc1cc(O)c2c(c1)OC1(c3ccc(O)c(O)c3)Oc3cc(O)c4c(c3C2C1O)OC(c1ccc(O)c(O)c1)C(O)C4 (centres unmarked) [Procyanidin A1] | 23 | 12% |
| Oc1cc(O)c2c(c1)O[C@@]1(c3ccc(O)c(O)c3)Oc3cc(O)c4c(c3[C@@H]2[C@H]1O)O[C@H](c1ccc(O)c(O)c1)[C@H](O)C4 [Procyanidin A2] | 6 | 3% |
| Nc1ccc2cc3ccc(N)cc3nc2c1.Nc1ccc2cc3ccc(N)cc3nc2c1.O=S(=O)(O)O [Proflavine (hemisulfate)] | 7 | 16% |
| CC(C)NCC(O)COc1cccc2ccccc12.Cl (centres unmarked) [Propranolol (hydrochloride)] | – | 51% and 35% |
| C[C@H]1O[C@@H](O[C@H]2CC[C@@]3(C)[C@@H](CC[C@]4(C)[C@@H]3C=CC3=C5CC(C)(C)CC[C@]5(CO)[C@H](O)C[C@]34C)[C@]2(C)CO)[C@H](O)[C@@H](O)[C@H]1O [Prosaikogenin D] | 15 | 54% |
| COC1=C(C)C(=O)O[C@]12C(=O)C(C)=C1CCCCN3[C@H]([C@@H]4C[C@H](C)C(=O)O4)CC[C@@]132 [Protostemotinine] | 0 | 22% |
| [Cl-].c1c2c(cc3c1OCO3)-c1cc3cc4c(cc3c[n+]1CC2)OCO4 [Pseudocoptisine (chloride)] | 0 | 14% |
| CC(C)(O)[C@H]1CC[C@@](C)([C@H]2CC[C@]3(C)[C@@H]2[C@H](O)C[C@@H]2[C@@]4(C)CC[C@H](O)C(C)(C)[C@@H]4[C@@H](O[C@@H]4O[C@H](CO)[C@@H](O)[C@H](O)[C@H]4O)C[C@]23C)O1 [Pseudoginsenoside RT5] | 0 | 16% |
| COC(=O)C1=CC[C@@]23CC[C@@H]([C@@](C)(/C=C/C=C(\C)C(=O)O[C@@H]4O[C@H](CO)[C@@H](O)[C@H](O)[C@H]4O)OC2=O)[C@@]3(OC(C)=O)CC1 [Pseudolaric acid B β-D-glucoside] | 4 | 0% |
| C=C(C)[C@@H]1CC[C@]2(C(=O)O)CC[C@]3(C)[C@H](CC[C@@H]4[C@@]5(C)CC[C@H](O[C@@H]6OC[C@H](O)[C@H](O)[C@H]6O[C@@H]6O[C@@H](C)[C@H](O)[C@@H](O)[C@H]6O)[C@@](C)(CO)[C@@H]5CC[C@]43C)[C@@H]12 [Pulchinenoside A] | 15 | 7% |
| C=C(C)[C@@H]1CC[C@]2(C(=O)O[C@@H]3O[C@H](CO[C@@H]4O[C@H](CO)[C@@H](O[C@@H]5O[C@@H](C)[C@H](O)[C@@H](O)[C@H]5O)[C@H](O)[C@H]4O)[C@@H](O)[C@H](O)[C@H]3O)CC[C@]3(C)[C@H](CC[C@@H]4[C@@]5(C)CC[C@H](O[C@@H]6OC[C@H](O)[C@H](O)[C@H]6O[C@@H]6O[C@@H](C)[C@H](O)[C@@H](O)[C@H]6O)[C@@](C)(CO)[C@@H]5CC[C@]43C)[C@@H]12 [Pulchinenoside C] | 4 | 0% |
| C[C@@H]1O[C@@H](O[C@H]2[C@H](O[C@H]3CC[C@@]4(C)[C@@H](CC[C@]5(C)[C@@H]4CC=C4[C@@H]6CC(C)(C)CC[C@]6(C(=O)O)CC[C@]45C)[C@]3(C)CO)OC[C@H](O[C@@H]3O[C@H](CO)[C@@H](O)[C@H](O)[C@H]3O)[C@@H]2O)[C@H](O)[C@H](O)[C@H]1O [Pulsatilla saponin D] | 0 | 0% |
| COc1ccc(C[C@H](N)C(=O)N[C@H]2[C@@H](O)[C@H](n3cnc4c(N(C)C)ncnc43)O[C@@H]2CO)cc1.Cl.Cl [Puromycin (D ihydrochloride)] | 13 | 14% |

Source: article PMC11855827, “High-Throughput Screening of Five Compound Libraries for Anthelmintic Activity and Toxicity Leads to the Discovery of Two Flavonoid Compounds” (International Journal of Molecular Sciences, 2025)
